Source: US20260240914A1, “MENIN-MLL INHIBITORS AND COMPOSITIONS FOR PROLIFERATION OF BETA CELLS” (BIOMEA FUSION, INC., priority 2022, published 2026)

Assays:
Type in all cases: cell-based
[1] = test system: human pancreatic islet beta cells; assay: Beta cell proliferation in human islet microtissues (EdU / NKX6.1 3D staining and microscopy); conditions: for proliferating beta cell fraction (EdU+NKX6.1+/NKX6.1 %): 0.3 μM
Experimental: (§1) The ability of menin-MLL inhibitors to induce beta cell proliferation is tested on human islet microtissue preparations (InSphero). Briefly, human islet microtissues are produced by enzymatic dissociation of the primary islet cells followed by controlled scaffold-free hanging-drop-based self-reaggregation of the islet cells (Misun et al., 2020, Adv. Biosyst. 2020, 4, 1900291). The process helps eliminate contaminating exocrine cells, while enabling homogenous and native-like distribution of endocrine cells within each islet microtissue. Islet microtissues generated by this process are uniform in size, and cellular composition, long lived, functionally robust and display long-term and stable functionality and viability during in vitro culture (Misun et al., 2020, Adv. Biosyst. 2020, 4, 1900291). The methodology confirms primary human beta cells can be cultured long term (few weeks) under ex-vivo culture conditions to enable beta cell expansion ex-vivo.
Islet microtissues (MTs) were aggregated for 5 days and then released into ultra-low attachment plates. Half of the plates were maintained in standard culture medium (5.5 mM glucose), and half were cultured in high-glucose culture medium (GTX, 8 mM glucose) starting at Day 9, for the duration of the whole experiment. Starting on Day 12 (after 3 days of GTX pre-treatment for the relevant plates), dosing with compound 10, a representative irreversible menin-MLL inhibitor, was initiated, using a Tecan D300e Digital Dispenser for harmine and Biomea compound. DMSO was normalized by volume across all wells. Media was exchanged and compounds redosed every 2-3 days throughout the experiment. EdU was included during the final 4 days of each treatment period. Compound dosing was randomized; to avoid compound cross-contamination between wells, all media exchanges were performed using 96-well deep-well plates with pipette tip exchange.
Proliferating cells were labeled in 3D by incubating MTs with […] EdU during the final 4 days of compound treatment. At the described termination point (1, 2, or 3 weeks), MTs were washed twice with PBS, fixed for 15 min in 4% PFA, washed twice more with PBS and stored in PBS with 0.05% sodium azide until staining. Islet MTs were then permeabilized with permeabilization buffer (Triton® X-100, 0.5% in PBS w/o Mg2+Ca2+) and washed twice with PBS. EdU was labeled using the Click-it reaction (Click-iT™ EdU Alexa Fluor™ 647 HCS Assay, Thermo Fisher). MTs were washed twice with PBS and blocked with 10% FCS solution to prevent nonspecific antibody binding, before overnight incubation with rabbit mAB NKX6.1 [EPR20405] (Abcam, ab221549) at a 1:200 dilution in antibody dilution buffer (10% FCS, 0.2% Triton® X-100 in PBS w/o Mg2+Ca2+) as a […]. Goat anti-rabbit secondary antibody AF568 (ThermoFisher A11036) was used as secondary antibody at a 1:200 dilution in antibody dilution buffer, along with DAPI. Finally, islet MTs were transferred into Akura 384-well plates and cleared with ScaleS4 for 3D imaging. Images were acquired using the Yokogawa CQI Benchtop High-Content Analysis System, taking fluorescent images in […] z-steps in blue, red and far-red channels. DAPI-, NKX6.1- and EdU-positive nuclei and signal colocalization were quantified in 3D using a customized CellPathfinder pipeline. Proliferating cells and proliferating-cells were manually counted to validate automated results. Statistical significance was determined with One-way ANOVA and Dunnett's multiple comparisons test, rejecting the null hypothesis at p=0.05. Outliers were detected with ROUT's outlier test (Q=5%). No outlier test was applied to the proliferating cells.

[2] = test system: human islet microtissues; assay: Total ATP content of human islet microtissues (CellTiter-Glo cell viability); conditions: 0.075 μM, 0.15 μM and 0.3 μM; 1, 2 or 3 weeks; through the duration of the assay
Experimental: as §1, with “The methodology confirms primary human beta cells can be cultured long term (few weeks) under ex-vivo culture conditions to enable beta cell expansion ex-vivo.” left out
(§2) At the described termination point (1, 2, or 3 weeks), culture media supernatants were collected for measurement of chronic insulin secretion (insulin secreted since last medium exchange, i.e. 72 hours in this project). […] Tissues were next analyzed for total ATP content using the Promega CellTiter-Glo® Luminescent Cell Viability Assay. […] Supernatants and lysates were appropriately diluted and total and secreted insulin were quantified using ALPCO Stellux® Chemi Human Insulin ELISA.

[3] = test system: human islet beta cells; assay: Total insulin content of human islet microtissues (insulin ELISA of lysates)
Experimental: as §1, with “The methodology confirms primary human beta cells can be cultured long term (few weeks) under ex-vivo culture conditions to enable beta cell expansion ex-vivo.” left out
as §2

[4] = test system: human islet beta cells; assay: Glucose stimulated insulin secretion assay in human islet microtissues
Experimental: as §1, with “The methodology confirms primary human beta cells can be cultured long term (few weeks) under ex-vivo culture conditions to enable beta cell expansion ex-vivo.” left out
as §2

[5] = compound 10 treatment, dose-dependent
[6] = standard glucose culture conditions (5.5 mM glucose)

For C=CC(=O)N[C@@H]1CCCN(Cc2ccnc(C(=O)Nc3ccc(-c4cc5c(N6CCOCC6)ncnc5[nH]4)cc3)c2)C1 (racemic) [Compound 10], the “proliferation at all three concentrations” value ([1]; 0.075 μM, 0.15 μM, and 0.3 μM, 7, 14, 21 days, reached highest by day 21) was “increase in proliferation”, the “proliferating beta cell fraction (EdU+NKX6.1+/NKX6.1 %)” value ([1]; Day 14 of culture, compared to DMSO control (FIG. 1, graphs B)) was “substantially” and the “proliferating beta cell fraction (EdU+NKX6.1+/NKX6.1 %)” value ([1]; Day 21 of culture, compared to DMSO control (FIG. 2, graphs B)) was “substantially”. The Total cell proliferation ([1]; compared to DMSO control) was “not increased”, the “Total β-cell count” value [1, 5] was “significantly increased” and the “β-cell fraction (NKX6.1+/DAPI+ %)” value [1, 5] was “significantly increased”. For the same compound, the “β-cell proliferation relative to solvent control” value ([1]; high glucose medium (8 mM glucose), 0.075 μM, 0.15 μM, and 0.3 μM, more pronounced than in standard medium) was “dose dependent increase”, the “viability as revealed by ATP content readout” value [2] was “good viability” and the “beta cell insulin content” value ([3]; high glucose conditions (8 mM glucose), treated for 2 and 3 weeks, vs vehicle control (DMSO)) was “dose dependent increase”. The total insulin content [3, 6] was “largely unchanged”, the “glucose stimulated insulin secretion” value ([4]; high glucose conditions (8 mM glucose), compared to vehicle treatment) was “improved” and the “glucose stimulated insulin secretion (improvement)” value [4, 6] was “not observed”.
